# Experimental data as given in PubChem BioAssay AID2060622 (Molecular Pharmacology Branch, DTP, NCI, 2025).
# Tested on: 242566-281-R-J2-PDC complex spheroid viability
# Assay: Anticancer human tumor 242566-281-R-J2-PDC patient-derived pancreatic carcinoma cell line growth inhibition [CLK]
# Details: for IC50: curve of first compound; for viability, T/C: stronger effect = lower value
# Method in brief: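 Multi-cell-type spheroids combined patient-derived tumor cells with HUVEC endothelial cells and human mesenchymal stem cells. Paired agents were dosed in half-log steps down from about clinical Cmax, or from 10 microM where Cmax was unknown.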
# 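Also: spheroids exposed to compounds for 7 days before readout.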
# 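For viability, T/C in this document: 100% = DMSO vehicle control wells.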
compound,measurement,setting,value
CC(C)CC(NC(=O)C(Cc1ccccc1)NC(=O)c1cnccn1)B(O)O (centres undefined) + CN1CCN(c2cc(C(=O)Nc3cc4cc(-c5cnn(C)c5)ccc4cn3)ccn2)CC1,IC50,second compound 0.0316 µM,2.08 nM
same,IC50,second compound 0.1 µM,1.98 nM
same,IC50,second compound 0.316 µM,< 0.949 nM
same,IC50,second compound 1 µM,< 0.949 nM
same,IC50,second compound 3.16 µM,< 0.949 nM
same,IC50,second compound 10 µM,< 0.949 nM
same,"viability, T/C","second compound 0.0316 µM, first compound 0.000949 µM",103%
same,"viability, T/C","second compound 0.0316 µM, first compound 0.003 µM",25.5%
same,"viability, T/C","second compound 0.0316 µM, first compound 0.00949 µM",1.28%
same,"viability, T/C","second compound 0.0316 µM, first compound 0.03 µM",0.43%
same,"viability, T/C","second compound 0.0316 µM, first compound 0.0949 µM",0.27%
same,"viability, T/C","second compound 0.0316 µM, first compound 0.3 µM",0.23%
same,"viability, T/C","second compound 0.1 µM, first compound 0.000949 µM",98.8%
same,"viability, T/C","second compound 0.1 µM, first compound 0.003 µM",22.7%
same,"viability, T/C","second compound 0.1 µM, first compound 0.00949 µM",0.52%
same,"viability, T/C","second compound 0.1 µM, first compound 0.03 µM",0.43%
same,"viability, T/C","second compound 0.1 µM, first compound 0.0949 µM",0.39%
same,"viability, T/C","second compound 0.1 µM, first compound 0.3 µM",0.27%
same,"viability, T/C","second compound 0.316 µM, first compound 0.000949 µM",26.7%
same,"viability, T/C","second compound 0.316 µM, first compound 0.003 µM",2.24%
same,"viability, T/C","second compound 0.316 µM, first compound 0.00949 µM",0.29%
same,"viability, T/C","second compound 0.316 µM, first compound 0.03 µM",0.28%
same,"viability, T/C","second compound 0.316 µM, first compound 0.0949 µM",0.29%
same,"viability, T/C","second compound 0.316 µM, first compound 0.3 µM",0.51%
same,"viability, T/C","second compound 1 µM, first compound 0.000949 µM",5.2%
same,"viability, T/C","second compound 1 µM, first compound 0.003 µM",1.12%
same,"viability, T/C","second compound 1 µM, first compound 0.00949 µM",0.43%
same,"viability, T/C","second compound 1 µM, first compound 0.03 µM",0.31%
same,"viability, T/C","second compound 1 µM, first compound 0.0949 µM",0.26%
same,"viability, T/C","second compound 1 µM, first compound 0.3 µM",0.4%
same,"viability, T/C","second compound 3.16 µM, first compound 0.000949 µM",7.89%
same,"viability, T/C","second compound 3.16 µM, first compound 0.003 µM",1.95%
same,"viability, T/C","second compound 3.16 µM, first compound 0.00949 µM",0.39%
same,"viability, T/C","second compound 3.16 µM, first compound 0.03 µM",0.2%
same,"viability, T/C","second compound 3.16 µM, first compound 0.0949 µM",0.38%
same,"viability, T/C","second compound 3.16 µM, first compound 0.3 µM",0.8%
same,"viability, T/C","second compound 10 µM, first compound 0.000949 µM",1.93%
same,"viability, T/C","second compound 10 µM, first compound 0.003 µM",1.11%
same,"viability, T/C","second compound 10 µM, first compound 0.00949 µM",0.3%
same,"viability, T/C","second compound 10 µM, first compound 0.03 µM",0.44%
same,"viability, T/C","second compound 10 µM, first compound 0.0949 µM",0.26%
same,"viability, T/C","second compound 10 µM, first compound 0.3 µM",0.34%
O=C(c1cc(Cc2n[nH]c(=O)c3ccccc23)ccc1F)N1CCN(C(=O)C2CC2)CC1 + CN1CCN(c2cc(C(=O)Nc3cc4cc(-c5cnn(C)c5)ccc4cn3)ccn2)CC1,IC50,second compound 0.0316 µM,> 10000 nM
same,IC50,second compound 0.1 µM,> 10000 nM
same,IC50,second compound 0.316 µM,< 31.6 nM
same,IC50,second compound 1 µM,< 31.6 nM
same,IC50,second compound 3.16 µM,< 31.6 nM
same,IC50,second compound 10 µM,< 31.6 nM
same,"viability, T/C","second compound 0.0316 µM, first compound 0.0316 µM",108%
same,"viability, T/C","second compound 0.0316 µM, first compound 0.1 µM",98%
same,"viability, T/C","second compound 0.0316 µM, first compound 0.316 µM",94.9%
same,"viability, T/C","second compound 0.0316 µM, first compound 1 µM",95.3%
same,"viability, T/C","second compound 0.0316 µM, first compound 3.16 µM",89.6%
same,"viability, T/C","second compound 0.0316 µM, first compound 10 µM",80.3%
same,"viability, T/C","second compound 0.1 µM, first compound 0.0316 µM",96.8%
same,"viability, T/C","second compound 0.1 µM, first compound 0.1 µM",96.9%
same,"viability, T/C","second compound 0.1 µM, first compound 0.316 µM",79.1%
same,"viability, T/C","second compound 0.1 µM, first compound 1 µM",85.6%
same,"viability, T/C","second compound 0.1 µM, first compound 3.16 µM",88.3%
same,"viability, T/C","second compound 0.1 µM, first compound 10 µM",62.8%
same,"viability, T/C","second compound 0.316 µM, first compound 0.0316 µM",33.5%
same,"viability, T/C","second compound 0.316 µM, first compound 0.1 µM",34.3%
same,"viability, T/C","second compound 0.316 µM, first compound 0.316 µM",29.7%
same,"viability, T/C","second compound 0.316 µM, first compound 1 µM",31.1%
same,"viability, T/C","second compound 0.316 µM, first compound 3.16 µM",29.2%
same,"viability, T/C","second compound 0.316 µM, first compound 10 µM",23.2%
same,"viability, T/C","second compound 1 µM, first compound 0.0316 µM",5.93%
same,"viability, T/C","second compound 1 µM, first compound 0.1 µM",3.31%
same,"viability, T/C","second compound 1 µM, first compound 0.316 µM",4.81%
same,"viability, T/C","second compound 1 µM, first compound 1 µM",4.43%
same,"viability, T/C","second compound 1 µM, first compound 3.16 µM",5.12%
same,"viability, T/C","second compound 1 µM, first compound 10 µM",5.59%
same,"viability, T/C","second compound 3.16 µM, first compound 0.0316 µM",7.36%
same,"viability, T/C","second compound 3.16 µM, first compound 0.1 µM",7.02%
same,"viability, T/C","second compound 3.16 µM, first compound 0.316 µM",6.98%
same,"viability, T/C","second compound 3.16 µM, first compound 1 µM",7.16%
same,"viability, T/C","second compound 3.16 µM, first compound 3.16 µM",7.79%
same,"viability, T/C","second compound 3.16 µM, first compound 10 µM",10.4%
same,"viability, T/C","second compound 10 µM, first compound 0.0316 µM",1.95%
same,"viability, T/C","second compound 10 µM, first compound 0.1 µM",2.1%
same,"viability, T/C","second compound 10 µM, first compound 0.316 µM",1.53%
same,"viability, T/C","second compound 10 µM, first compound 1 µM",2.95%
same,"viability, T/C","second compound 10 µM, first compound 3.16 µM",2.41%
same,"viability, T/C","second compound 10 µM, first compound 10 µM",1.71%
